In PMC6270099, “Synthesis, Biological Evaluation, and Pharmacokinetic Study of Novel Liguzinediol Prodrugs” (Molecules, 2013):
Marks after values point to notes of the source that are not given here.

Key:
[1] = system: isolated Langendorff-perfused rat hearts; assay: Ex vivo Langendorff-perfused rat heart, cardiac performance; settings: for ∆% +dP/dtmax / ∆% LVDP / ∆% −dP/dtmax: increase vs. control; for LVDP: isolated rat heart, mean ± SD, n = 6
Experimental: The cardiac contractility and safety of prodrugs 3–5 were evaluated on the myocardium in normal isolated rat hearts with LZDO as a positive control. Prodrugs 3–5 exerted positive inotropic effects in a dose-dependent manner. The increased rate in left ventricular developed pressure (LVDP, accepted as contractile force), +dP/dtmax (used as an index of contractility), the maximum rate of pressure decrease of the left ventricle ([…], used as an index of diastolic function) and the heart rate (HR, used as an index of heart muscle oxygen consumption) of these compounds vs. control are listed in Table 1.
All commercial reagents and solvents were used without further purification unless otherwise specified. Melting points were determined using a model Buchi B-450 apparatus. ESI-MS were recorded on a TOF mass spectrometer (Applies-Biosystem Mariner). IR spectra were acquired by using a THERMO IR spectrometer Model Nicolet-100. ^1H- and ^13C-NMR spectra (500/125 MHz) were recorded on a Bruker Advance 500 spectrophotometer. Mass spectra were recorded on a ZAB-HS mass spectrometer and are reported as m/z values. HPLC analysis was conducted on a Waters 2695 HPLC instrument equipped with a UV detector (model 2489). LZDO and prodrugs 3–5 were analysed by HPLC, and their purity was confirmed to be greater than 98.0%. In vitro metabolic stability analysis was conducted by a HPLC method, using stock standard solutions of LZDO and prodrugs that were prepared in water at a concentration of 30 mM. The positive inotropic effects on the myocardium of LZDO and prodrugs 3–5 in vitro were evaluated on Langendorff-perfused hearts isolated from normal Sprague-Dawley rats. A HPLC method was applied to measure the rat plasma concentrations of LZDO and prodrug 3 after intragastric administration of prodrug 3 in the rats.
Sprague-Dawley adult male rats weighing 260–320 g were anaesthetised by intraperitoneal administration of 20% urethane (1.2 g/kg). The hearts were quickly removed and placed into an ice-cold modified buffer until contractions ceased. The heart was cleaned of surrounding tissues, mounted on the aortic cannula of the Langendorff perfusion system apparatus, and perfused with oxygenated buffer (mM): NaCl 117, KCl 5.7, CaCl2 1.8, MgCl2 1.7, NaHCO3 4.4, NaH2PO4 1.5, HEPES 20 and glucose 11. The buffer was equilibrated with 95% O2 and 5% CO2 and adjusted to pH 7.4 with NaOH before it entered the heart. An epicardial electrogram was registered using two stainless steel electrodes, one attached to the apex of the heart and the other to the aortic cannula. To obtain an isovolumetrically beating preparation, a latex balloon filled with water and connected by a catheter to a transducer was inserted through the left atrium into the left ventricle and inflated to provide an end-diastolic pressure between 8 and 12 mm Hg. Before each experimental protocol was initiated, the isolated hearts were set at a mean arterial pressure of 60–80 mm Hg and allowed to stabilise at 37 °C for 40–60 min. The isolated rat hearts were then perfused in sequence with 1, 10, and 100 μM of LZDO and prodrugs 3–5 in each group. A RM6240B/C four channel physiological recording instrument (Chengdu Instrument Factory, Chengdu, China) was used for continuous recording of LVSP, LVEDP, HR (derived from electrogram), +dP/dtmax and −dP/dtmax throughout the experiments. The criteria for established stability were LVDP > 50 mmHg, +dP/dtmax > 1,600 mmHg·s^−1, heart rate > 180 beats·min^−1 and normal sinus rhythm. The hearts were not studied if they had weak contractility (+dP/dtmax < 1,600 mmHg·s^−1) and severe arrhythmia. Diastolic balloon pressure was maintained at 8 mmHg. LVDP was calculated as the difference between the systolic and diastolic pressures. The results are expressed as the mean value of hemodynamic variables (n = 6). Statistical analysis was performed using SPSS for Windows (version 13.0). Data were analyzed by One-way ANOVA. […]

[2] = Pharmacokinetics of LZDO in rats after intragastric administration of prodrug 3; assay type: in vivo, rat; settings: rats (data not shown)
Experimental: Pharmacokinetic parameters including half-life, clearance, and bioavailability are important properties of a drug candidate. […] The major pharmacokinetic parameters of LZDO were calculated using a noncompartment model based on statistical moment. The pharmacokinetic parameters of LZDO after intragastric administration of prodrug 3 at 10, 20 and 40 mg/kg in rats are summarized in Table 2. The pharmacokinetic parameters of LZDO after intragastric administering LZDO at 10, 20 and 50 mg/kg in rats are summarized in Table 3 [19]. Prodrug 3 was converted completely within 2 h in rats (data not shown).
Sprague-Dawley rats (male, weighing 200 ± 20 g) were obtained from Slack Laboratory Animal Site (Shanghai, China) and kept in an environmentally controlled breeding room for at least five days before experimentation. The rats were fasted overnight but with free access to water before the test. Animal welfare and experimental procedures were strictly in accordance with the guide for the care and use of laboratory animals. […] The collected blood samples were pretreated by the aforementioned method (sample dilutions were made when necessary) and the concentrations of LZDO and prodrug 3 in each sample were finally determined based on the validated HPLC method. […]

Row | Compound | +dP/dtmax ([1]; 1 μM) | HR ([1]; 1 μM) | −dP/dtmax ([1]; 1 μM) | ∆% +dP/dtmax ([1]; 1 μM) | ∆% LVDP ([1]; 1 μM) | ∆% −dP/dtmax ([1]; 1 μM) | LVDP ([1]; 1 μM) | +dP/dtmax ([1]; 10 μM) | HR ([1]; 10 μM) | −dP/dtmax ([1]; 10 μM) | ∆% +dP/dtmax ([1]; 10 μM) | ∆% LVDP ([1]; 10 μM) | ∆% −dP/dtmax ([1]; 10 μM) | LVDP ([1]; 10 μM) | +dP/dtmax ([1]; 100 μM) | HR ([1]; 100 μM) | −dP/dtmax ([1]; 100 μM) | ∆% +dP/dtmax ([1]; 100 μM) | ∆% −dP/dtmax ([1]; 100 μM) | LVDP ([1]; 100 μM) | further results
1 | CC(=O)OCc1nc(C)c(COC(C)=O)nc1C [compound 3] | 1,641 ± 29 mmHg/s | 203 ± 15 beat·min^−1 | −1,139 ± 76 mmHg/s | 1.9 ± 0.5% | 15.0 ± 5.5% | 4.9 ± 5.9% | 63 ± 2 ^b mmHg | 1,768 ± 91 ^bd mmHg/s | 204 ± 14 beat·min^−1 | −1,184 ± 75 ^a mmHg/s | 9.8 ± 7.0% | 26.3 ± 7.7% | 9.0 ± 5.1% | 69 ± 1.1 ^bd mmHg | 2,123 ± 82 ^bdf mmHg/s | 205 ± 26 beat·min^−1 | −1,313 ± 70 ^bdf mmHg/s | 31.8 ± 5.3% | 20.9 ± 5.1% | 79 ± 1.6 ^bdf mmHg | ∆% LVDP ([1]; 100 μM): 44.7 ± 6.6%; positive inotropic effect on the myocardium ([1]; normal isolated rat hearts, 1, 10, 100 μM): most potent prodrug; time to complete conversion of prodrug in rats [2]: ≤ 2 h
2 | Cc1nc(COC(=O)C(C)C)c(C)nc1COC(=O)C(C)C [compound 4, 2,5-Di-iso-butyryloxymethyl-3,6-dimethylpyrazine] | 1,669 ± 103 mmHg/s | 213 ± 46 beat·min^−1 | −1,101 ± 102 mmHg/s | 2.2 ± 3.4% | 17.4 ± 9.8% | 5.6 ± 8.3% | 63 ± 3 ^b mmHg | 1,765 ± 52 ^a mmHg/s | 196 ± 16 beat·min^−1 | −1,196 ± 54 ^bc mmHg/s | 4.9 ± 5.4% | 14.2 ± 10.0% | 9.9 ± 9.5% | 60 ± 4 ^a mmHg | 1,952 ± 49 ^bdf mmHg/s | 191 ± 29 beat·min^−1 | −1,399 ± 61 ^bdf mmHg/s | 9.0 ± 8.9% | 16.7± 15.2% | 73 ± 2.3 ^bdf mmHg | 
3 | Cc1nc(COC(=O)c2ccccc2)c(C)nc1COC(=O)c1ccccc1 [compound 5, 2,5-Dibenzoyloxymethyl-3,6-dimethylpyrazine] | 1,688 ± 95 mmHg/s | 189 ± 30 beat·min^−1 | −1,095 ± 45 mmHg/s | 1.0 ± 1.1% | 5.3 ± 3.3% | 1.3 ± 0.8% | 55 ± 5 mmHg | 1,831 ± 14 ^bd mmHg/s | 196 ± 40 beat·min^−1 | −1,245 ± 48 ^bd mmHg/s | 9.9 ± 5.9% | 13.9 ± 7.4% | 15.3 ± 2.8% | 59 ± 2.5 ^b mmHg | 1,962 ± 70 ^bdf mmHg/s | 213 ± 41 beat·min^−1 | −1,314 ± 63 ^bde mmHg/s | 17.6 ± 6.8% | 21.7 ± 7.2% | 64 ± 2.4 ^bde mmHg | ∆% LVDP ([1]; 100 μM): 24.5 ± 11.2%
